According to patent US10308659B2, “Pyridine derivatives” (Hoffmann-La Roche Inc., priority 2013, dated 2019):

Key:
human CB1 receptors = human CB1 receptors (Homo sapiens (Human), UniProt P21554); test: cAMP assay, CHO cells expressing human CB1 receptors; type: cell-based; conditions: functional cAMP assay, CHO cells expressing human CB1; read-out: EC50 CB1 human
Experimental: (§1) CHO cells expressing human CB1 or CB2 receptors are seeded 17-24 hours prior to the experiment 50.000 cells per well in a black 96 well plate with flat clear bottom (Corning Costar #3904) in DMEM (Invitrogen No. 31331), 1×HT supplement, with 10% fetal calf serum and incubated at 5% CO2 and 37° C. in a humidified incubator. The growth medium was exchanged with Krebs Ringer Bicarbonate buffer with 1 mM IBMX and incubated at 30° C. for 30 min. Compounds were added to a final assay volume of 100 μl and incubated for 30 min at 30° C. […] The time-resolved energy transfer is measured by a TRF reader (Evotec Technologies GmbH), equipped with a ND:YAG laser as excitation source. The plate is measured twice with the excitation at 355 nm and at the emission with a delay of 100 ns and a gate of 100 ns, total exposure time 10 s at 730 (bandwidth30 nm) or 645 nm (bandwidth 75 nm), respectively. The FRET signal is calculated as follows: FRET=T730-Alexa730-P(T645-B645) with P=Ru730-B730/Ru645-B645, where T730 is the test well measured at 730 nM, T645 is the test well measured at 645 nm, B730 and B645 are the buffer controls at 730 nm and 645 nm, respectively. cAMP content is determined from the function of a standard curve spanning from 10 μM to 0.13 nM cAMP.
(§2) EC50 values were determined using Activity Base analysis (ID Business Solution, Limited).

human CB2 receptors = human CB2 receptors (Homo sapiens (Human), UniProt P34972); test: cAMP assay, CHO cells expressing human CB2 receptors; type: cell-based; conditions: functional cAMP assay, CHO cells expressing human CB2; read-out: EC50 CB2 human
Sequence of human CB2 receptors (P34972 whole entry): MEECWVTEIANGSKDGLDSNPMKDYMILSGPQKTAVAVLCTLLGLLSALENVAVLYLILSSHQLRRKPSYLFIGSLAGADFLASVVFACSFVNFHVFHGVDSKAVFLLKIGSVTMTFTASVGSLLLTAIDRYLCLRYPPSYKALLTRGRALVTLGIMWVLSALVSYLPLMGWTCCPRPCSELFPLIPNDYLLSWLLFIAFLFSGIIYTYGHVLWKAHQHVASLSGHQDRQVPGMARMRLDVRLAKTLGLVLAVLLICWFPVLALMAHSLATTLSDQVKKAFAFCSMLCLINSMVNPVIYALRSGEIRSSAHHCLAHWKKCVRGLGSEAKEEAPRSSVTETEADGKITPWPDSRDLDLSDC
Experimental: as §1, §2

Sequence of human CB1 receptors (P21554 whole entry): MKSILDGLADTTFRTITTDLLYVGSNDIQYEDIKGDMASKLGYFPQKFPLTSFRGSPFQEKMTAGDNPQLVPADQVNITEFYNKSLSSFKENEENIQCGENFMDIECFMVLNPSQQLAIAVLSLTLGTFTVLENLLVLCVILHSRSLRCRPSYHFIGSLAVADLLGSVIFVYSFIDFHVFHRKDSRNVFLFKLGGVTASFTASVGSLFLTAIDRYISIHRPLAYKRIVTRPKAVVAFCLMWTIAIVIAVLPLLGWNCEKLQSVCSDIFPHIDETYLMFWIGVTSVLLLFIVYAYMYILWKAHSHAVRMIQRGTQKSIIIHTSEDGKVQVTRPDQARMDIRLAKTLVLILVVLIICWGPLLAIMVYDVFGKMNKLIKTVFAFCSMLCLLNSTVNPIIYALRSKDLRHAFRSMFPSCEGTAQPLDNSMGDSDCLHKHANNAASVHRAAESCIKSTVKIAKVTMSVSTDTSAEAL

For `CC(C)(C)c1nc(-c2cc(OCc3cccnc3)c(C3CC3)cn2)no1` [Example 119, 5-tert-butyl-3-[5-cyclopropyl-4-(pyridin-3-ylmethoxy)pyridin-2-yl]-1,2,4-oxadiazole], the EC50 (human CB1 receptors) was > 10 µM and the EC50 (human CB2 receptors) was 47 nM.
With `CC(C)(C)c1nc(-c2cc(OCCN3CCCCC3)c(C3CC3)cn2)no1` [Example 95, 5-tert-butyl-3-[5-cyclopropyl-4-(2-piperidin-1-ylethoxy)pyridin-2-yl]-1,2,4-oxadiazole] the EC50 (human CB1 receptors) was > 10 µM and the EC50 (human CB2 receptors) was 26.1 nM.
In the case of `CC(C)(C)c1nc(-c2cc(OCC3CCCO3)c(C3CC3)cn2)no1` (centres unmarked) [Example 56, 5-tert-butyl-3-[5-cyclopropyl-4-(oxolan-2-ylmethoxy)pyridin-2-yl]-1,2,4-oxadiazole], the EC50 (human CB1 receptors) is reported as > 10 µM and the EC50 (human CB2 receptors) is reported as 44.7 nM.
For `CC1(c2nc(-c3cc(OCC(F)(F)F)c(N4CC(F)(F)C4)cn3)no2)COC1` [Example 47, 3-[5-(3,3-difluoroazetidin-1-yl)-4-(2,2,2-trifluoroethoxy)pyridin-2-yl]-5-(3-methyloxetan-3-yl)-1,2,4-oxadiazole], the EC50 (human CB1 receptors) was > 10 µM and the EC50 (human CB2 receptors) was 166 nM.
`CC(C)CC1(C)N=C(c2cc(OCC(F)(F)F)c(C3CC3)cn2)NC1=O` (centres unmarked) [Example 69, 2-[5-cyclopropyl-4-(2,2,2-trifluoroethoxy)pyridin-2-yl]-4-methyl-4-(2-methylpropyl)-1H-imidazol-5-one] was tested, and the EC50 (human CB1 receptors) was > 10 µM and the EC50 (human CB2 receptors) was 9 nM.
`CC1(C)CN=C(c2cc(OCC(F)(F)F)c(C3CC3)cn2)O1` [Example 41, 2-[5-cyclopropyl-4-(2,2,2-trifluoroethoxy)pyridin-2-yl]-5,5-dimethyl-4H-1,3-oxazole] was tested, and the EC50 (human CB1 receptors) was > 10 µM and the EC50 (human CB2 receptors) was 53.9 nM.
`CC(C)(C)c1nc(-c2cc(OCc3ccc(F)cc3)c(C3CC3)cn2)no1` [Example 53, 5-tert-butyl-3-[5-cyclopropyl-4-[(4-fluorophenyl)methoxy]pyridin-2-yl]-1,2,4-oxadiazole] gave an EC50 (human CB1 receptors) of 0.0551 µM and an EC50 (human CB2 receptors) of 1.4 nM.
For `CC(C)(C)c1nc(-c2cc(Oc3ccc(F)cc3)c(C3(F)COC3)cn2)no1` [Example 110, 5-tert-butyl-3-[5-(3-fluorooxetan-3-yl)-4-(4-fluorophenoxy)pyridin-2-yl]-1,2,4-oxadiazole], the EC50 (human CB1 receptors) was > 10 µM and the EC50 (human CB2 receptors) was 103 nM.
With `c1ccc(Cc2noc(-c3cc(OCC4CC4)c(C4CC4)cn3)n2)cc1` [Example 5, 3-benzyl-5-[5-cyclopropyl-4-(cyclopropylmethoxy)pyridin-2-yl]-1,2,4-oxadiazole] the EC50 (human CB1 receptors) was > 10 µM and the EC50 (human CB2 receptors) was 69.1 nM.
Compound `CC1(c2nc(-c3cc(OCC4CC4)c(C4CC4)cn3)no2)CC1` [Example 24, 3-[5-cyclopropyl-4-(cyclopropylmethoxy)pyridin-2-yl]-5-(1-methylcyclopropyl)-1,2,4-oxadiazole] has an EC50 (human CB1 receptors) of 0.581 µM and an EC50 (human CB2 receptors) of 4.3 nM.
With `c1c(-c2noc(C3CNC3)n2)ncc(C2CC2)c1OCC1CC1` [Example 29, 5-(azetidin-3-yl)-3-[5-cyclopropyl-4-(cyclopropylmethoxy)pyridin-2-yl]-1,2,4-oxadiazole] the EC50 (human CB1 receptors) was > 10 µM and the EC50 (human CB2 receptors) was 797 nM.
`CN1CCC[C@H]1COc1cc(-c2noc(C(C)(C)C)n2)ncc1C1CC1` [Example 57, 5-tert-butyl-3-[5-cyclopropyl-4-[[(2S)-1-methylpyrrolidin-2-yl]methoxy]pyridin-2-yl]-1,2,4-oxadiazole] was tested, and the EC50 (human CB1 receptors) was > 10 µM and the EC50 (human CB2 receptors) was 13.4 nM.
With `Cc1noc(-c2cc(OCC3CC3)c(C3CC3)cn2)n1` [Example 1, 5-[5-cyclopropyl-4-(cyclopropylmethoxy)pyridin-2-yl]-3-methyl-1,2,4-oxadiazole] the EC50 (human CB1 receptors) was > 10 µM and the EC50 (human CB2 receptors) was 25.7 nM.
`FC(F)(F)COc1cc(-c2nc(C3CC3)no2)ncc1N1CC(F)(F)C1` [Example 15, 3-cyclopropyl-5-[5-(3,3-difluoroazetidin-1-yl)-4-(2,2,2-trifluoroethoxy)pyridin-2-yl]-1,2,4-oxadiazole] was tested, and the EC50 (human CB1 receptors) was > 10 µM and the EC50 (human CB2 receptors) was 19.8 nM.
`CC(C)(C)c1nc(-c2cc(OCc3ccccn3)c(C3CC3)cn2)no1` [Example 117, 5-tert-butyl-3-[5-cyclopropyl-4-(pyridin-2-ylmethoxy)pyridin-2-yl]-1,2,4-oxadiazole] was tested, and the EC50 (human CB1 receptors) was > 10 µM and the EC50 (human CB2 receptors) was 53.9 nM.
With `CC(C)(C)c1nc(-c2cc(N3CCOCC3)c(C3CC3)cn2)no1` [Example 78, 4-[2-(5-tert-butyl-1,2,4-oxadiazol-3-yl)-5-cyclopropylpyridin-4-yl]morpholine] the EC50 (human CB1 receptors) was > 10 µM and the EC50 (human CB2 receptors) was 42.2 nM.
With `CC(C)C1(C)N=C(c2cc(OCC(F)(F)F)c(C3CC3)cn2)NC1=O` (centres unmarked) [Example 66, 2-[5-cyclopropyl-4-(2,2,2-trifluoroethoxy)pyridin-2-yl]-4-methyl-4-propan-2-yl-1H-imidazol-5-one] the EC50 (human CB1 receptors) was > 10 µM and the EC50 (human CB2 receptors) was 9 nM.
In the case of `CC(C)(C)c1nc(-c2cc(OC3CCOC3)c(C3CC3)cn2)no1` (centres unmarked) [Example 62, 5-tert-butyl-3-[5-cyclopropyl-4-(oxolan-3-yloxy)pyridin-2-yl]-1,2,4-oxadiazole], the EC50 (human CB1 receptors) is reported as > 10 µM and the EC50 (human CB2 receptors) is reported as 17.8 nM.
For `Cc1cc(COc2cc(-c3noc(C(C)(C)C)n3)ncc2C2CC2)no1` [Example 107, 5-tert-butyl-3-[5-cyclopropyl-4-[(5-methyl-1,2-oxazol-3-yl)methoxy]pyridin-2-yl]-1,2,4-oxadiazole], the EC50 (human CB1 receptors) was > 10 µM and the EC50 (human CB2 receptors) was 95.8 nM.
In the case of `CC(C)(C)c1nc(-c2cc(OCCN3CCOCC3)c(C3CC3)cn2)no1` [Example 103, 4-[2-[2-(5-tert-butyl-1,2,4-oxadiazol-3-yl)-5-cyclopropylpyridin-4-yl]oxyethyl]morpholine], the EC50 (human CB1 receptors) is reported as > 10 µM and the EC50 (human CB2 receptors) is reported as 28.9 nM.
In the case of `CC(C)(C)c1nc(-c2cc(N3CCCC3)c(C3CC3)cn2)no1` [Example 79, 5-tert-butyl-3-(5-cyclopropyl-4-pyrrolidin-1-ylpyridin-2-yl)-1,2,4-oxadiazole], the EC50 (human CB1 receptors) is reported as > 10 µM and the EC50 (human CB2 receptors) is reported as 9 nM.
`CCC1(C)N=C(c2cc(OCC(F)(F)F)c(C3CC3)cn2)NC1=O` (centres unmarked) [Example 68, 2-[5-cyclopropyl-4-(2,2,2-trifluoroethoxy)pyridin-2-yl]-4-ethyl-4-methyl-1H-imidazol-5-one] was tested, and the EC50 (human CB1 receptors) was > 10 µM and the EC50 (human CB2 receptors) was 72.6 nM.
In the case of `NC(=O)C1(c2nc(-c3cc(OCC4CC4)c(C4CC4)cn3)no2)CC1` [Example 25, 1-[3-[5-cyclopropyl-4-(cyclopropylmethoxy)pyridin-2-yl]-1,2,4-oxadiazol-5-yl]cyclopropane-1-carboxamide], the EC50 (human CB1 receptors) is reported as > 10 µM and the EC50 (human CB2 receptors) is reported as 135 nM.
`CC(C)(C)c1nc(-c2cc(N3CCC4(COC4)C3)c(C3CC3)cn2)no1` [Example 76, 7-[2-(5-tert-butyl-1,2,4-oxadiazol-3-yl)-5-cyclopropylpyridin-4-yl]-2-oxa-7-azaspiro[3.4]octane] was tested, and the EC50 (human CB1 receptors) was > 10 µM.
For `CC(C)(O)c1nc(-c2cc(OCC3CC3)c(C3CC3)cn2)no1` [Example 26, 2-[3-[5-cyclopropyl-4-(cyclopropylmethoxy)pyridin-2-yl]-1,2,4-oxadiazol-5-yl]propan-2-ol], the EC50 (human CB1 receptors) was > 10 µM.
In the case of `CC(C)(C)c1nc(-c2cc(OCC(F)(F)F)c(N3CC(F)(F)C3)cn2)no1` [Example 44, 5-tert-butyl-3-[5-(3,3-difluoroazetidin-1-yl)-4-(2,2,2-trifluoroethoxy)pyridin-2-yl]-1,2,4-oxadiazole], the EC50 (human CB1 receptors) is reported as > 10 µM.
For `CC(C)(C)c1nc(-c2cc(OCC3COCCN3)c(C3CC3)cn2)no1` (centres unmarked) [Example 102, 3-[[2-(5-tert-butyl-1,2,4-oxadiazol-3-yl)-5-cyclopropylpyridin-4-yl]oxymethyl]morpholine], the EC50 (human CB1 receptors) was > 10 µM.
With `CC1(c2nc(-c3cc(OCC(F)(F)F)c(C4CC4)cn3)no2)CC1` [Example 34, 3-[5-cyclopropyl-4-(2,2,2-trifluoroethoxy)pyridin-2-yl]-5-(1-methylcyclopropyl)-1,2,4-oxadiazole] the EC50 (human CB1 receptors) was > 10 µM.
`FC(F)(F)COc1cc(-c2nc(C3CC3)no2)ncc1C1CC1` [Example 7, 3-cyclopropyl-5-[5-cyclopropyl-4-(2,2,2-trifluoroethoxy)pyridin-2-yl]-1,2,4-oxadiazole] was tested, and the EC50 (human CB1 receptors) was > 10 µM.
In the case of `CC(C)(C)c1noc(-c2cc(OCC(F)(F)F)c(N3CC(F)(F)C3)cn2)n1` [Example 17, 3-tert-butyl-5-[5-(3,3-difluoroazetidin-1-yl)-4-(2,2,2-trifluoroethoxy)pyridin-2-yl]-1,2,4-oxadiazole], the EC50 (human CB1 receptors) is reported as > 10 µM.
For `CC(C)(C)c1nc(-c2cc(OCc3ccc(F)cc3)c(C3CC3)c(Cl)n2)no1` [Example 112, 5-tert-butyl-3-(6-chloro-5-cyclopropyl-4-(4-fluorobenzyloxy)pyridin-2-yl)-1,2,4-oxadiazole], the EC50 (human CB1 receptors) was 0.0732 µM.
In the case of `CC(C)(C)c1nnc(-c2cc(OCC(F)(F)F)c(C3CC3)cn2)o1` [Example 113, 2-tert-butyl-5-[5-cyclopropyl-4-(2,2,2-trifluoroethoxy)pyridin-2-yl]-1,3,4-oxadiazole], the EC50 (human CB1 receptors) is reported as > 10 µM.
In the case of `c1c(C2=NC3(CCCCC3)CO2)ncc(C2CC2)c1OCC1CC1` [Example 22, 2-[5-cyclopropyl-4-(cyclopropylmethoxy)pyridin-2-yl]-3-oxa-1-azaspiro[4.5]dec-1-ene], the EC50 (human CB2 receptors) is reported as 4.2 nM.
